Results reported in patent publication US8334316B2, “Substituted organosulfur compounds and methods of using thereof” (ACEA Biosciences, Inc., priority 2004, dated 2012).

System: microtubules in COS cells
Assay: Microtubule network in cultured COS cells (anti-tubulin immunofluorescence, confocal microscopy)
Format: cell-based
Method: Cell Culture and Immunocytochemistry. COS cells were grown in DMEM media supplemented with non-essential amino acids, 10% FBS, antibiotic-antimycotic (Gibco BRL) at 37° C. and 5.5% CO2. […] Cells were then rinsed once with warm PBS, fixed with cold methanol, rinsed again in PBS and blocked overnight at 4° C. in PBT (PBS, 1% BSA, 0.5% Triton X-100). All subsequent stains and washes were done in PBT at room temperature unless stated otherwise. Cells were stained with the anti-tubulin mouse antibody DM-1 at 1:1000 for 1 hour, washed four times for 15 minutes each and then treated with Cy-3 conjugated goat anti mouse antibody at 1:100 for 1 hour in the dark. Next, samples were washed four times for 15 minutes each in PBT in the dark followed by a final 15 minute wash in PBS in the dark. Samples were then viewed by laser scanning confocal microscopy.

Compound: Cc1cccc(CSSSCc2cccc(C)c2)c1 [ACEA100116, di(m-methylbenzyl)trisulfide]
- Microtubule network appearance (4 hours exposure): at the two higher concentrations, microtubules appear very short and abnormal
- Microtubule network / cell appearance (24 hours, 1 uM): appear relatively normal
- Cell viability (24 hours, 3 uM or 9 uM): essentially all cells treated with 3 uM or 9 uM were dead
